In ChEMBL document CHEMBL4819037, “Phytochemical Profiling and Biological Activity of the Australian Carnivorous Plant, Drosera magna” (J Nat Prod, 2021):
Activity calls are given as the source filed them. The calls are words filed in the database; no cut-off is given here.

Columns and labels:
[1] = system: Haemonchus contortus; assay: Anti-helmintic activity against fourth stage L4 Haemonchus contortus larvae assessed as inhibition of larvae motility at 100 uM after 72 hrs; type: functional; parameters: scale not given: the % may be the effect or the level left
[2] = system: Haemonchus contortus; assay: Anti-helmintic activity against fourth stage L4 Haemonchus contortus larvae assessed as induction of abnormal morphological phenotype at >= 50 uM after 7 days; type: functional, organism-based; conditions: dose microM >=50, time 7.0 day
[3] = system: Candida albicans; assay: Antimicrobial activity against Candida albicans ATCC 90028 assessed as inhibition of fungal growth at 8 ug/ml incubated for 24 hrs by resazurin dye based assay; type: functional; parameters: scale not given: the % may be the effect or the level left; conditions: dose 8 µg/ml
[4] = system: Cryptococcus neoformans; assay: Antimicrobial activity against Cryptococcus neoformans var. grubii ATCC 208821 assessed as inhibition of fungal growth at 4 ug/ml incubated for 24 hrs by resazurin dye based assay; type: functional; parameters: scale not given: the % may be the effect or the level left; conditions: dose 4 µg/ml
[5] = system: HEK293; assay: Cytotoxicity against human HEK293 cells at 32 ug/ml; type: cell-based
[6] = system: Haemonchus contortus; assay: Anti-helmintic activity against third-stage xL3 Haemonchus contortus larvae assessed as inhibition of larvae motility at 100 uM measured after 72 hrs; type: functional, organism-based
[7] = system: Candida albicans; assay: Antimicrobial activity against Candida albicans ATCC 90028 assessed as inhibition of fungal growth at 32 ug/ml incubated for 24 hrs by resazurin dye based assay; type: functional, organism-based; conditions: dose 32.0 µg/ml
[8] = system: Pseudomonas aeruginosa; assay: Antimicrobial activity against Pseudomonas aeruginosa ATCC 27853 assessed as inhibition of bacterial growth at 32 ug/ml incubated for 18 hrs by resazurin dye based assay; type: functional, organism-based; conditions: dose 32.0 µg/ml
[9] = system: Escherichia coli; assay: Antimicrobial activity against Escherichia coli ATCC 25922 assessed as inhibition of bacterial growth at 32 ug/ml incubated for 18 hrs by resazurin dye based assay; type: functional, organism-based; conditions: dose 32.0 µg/ml
[10] = system: Staphylococcus aureus; assay: Antimicrobial activity against methicillin-resistant Staphylococcus aureus ATCC 43300 assessed as inhibition of bacterial growth at 32 ug/ml incubated for 18 hrs by resazurin dye based assay; type: functional, organism-based; conditions: dose 32.0 µg/ml
[11] = system: Acinetobacter baumannii; assay: Antimicrobial activity against Acinetobacter baumannii ATCC 19606 assessed as inhibition of bacterial growth at 32 ug/ml incubated for 18 hrs by resazurin dye based assay; type: functional, organism-based; conditions: ATCC 19606 = CIP 70.34 = JCM 6841, dose 32.0 µg/ml
[12] = Hemolytic activity against RBC (unknown origin) at 32 ug/ml; type: ADME, cell-based, Erythrocyte; conditions: red blood cells (erythrocytes), at 32 µg/mL, read-out: Activity
[13] = system: Klebsiella pneumoniae; assay: Antimicrobial activity against Klebsiella pneumoniae ATCC 700603 assessed as inhibition of bacterial growth at 32 ug/ml incubated for 18 hrs by resazurin dye based assay; type: functional, organism-based; conditions: dose 32.0 µg/ml
[14] = system: Cryptococcus neoformans; assay: Antimicrobial activity against Cryptococcus neoformans var. grubii ATCC 208821 assessed as inhibition of fungal growth at 32 ug/ml incubated for 24 hrs by resazurin dye based assay; type: functional; conditions: dose 32.0 µg/ml
[15] = system: Cryptococcus neoformans; assay: Antimicrobial activity against Cryptococcus neoformans var. grubii ATCC 208821 assessed as inhibition of fungal growth at 8 ug/ml incubated for 24 hrs by resazurin dye based assay; type: functional; parameters: scale not given: the % may be the effect or the level left; conditions: dose 8 µg/ml
[16] = system: Staphylococcus aureus; assay: Antimicrobial activity against methicillin-resistant Staphylococcus aureus ATCC 43300 assessed as inhibition of bacterial growth at < 0.2 ug/ml incubated for 18 hrs by resazurin dye based assay; type: functional; parameters: scale not given: the % may be the effect or the level left; conditions: dose microg/ml <0.2

CC1=C(O)C(=O)c2c(O)ccc(O)c2C1=O
Activity [1]: 27%
Activity [2]: Active
Activity [3]: 98%
Activity [4]: 100%
Activity ([5]; dose 32 µg/ml): Non-Toxic
Activity [6]: inactive

CC1=C(O)C(=O)c2c(OC3OC(CO)C(O)C(O)C3O)ccc(O)c2C1=O (configuration not stated)
Activity [7]: Active

O=c1c(O[C@@H]2O[C@H](CO)[C@@H](O)[C@H](O)[C@H]2O)c(-c2ccc(O)c(O)c2)oc2cc(O)cc(O)c12 [ISOQUERCETIN]
Activity [8]: Active
Activity [9]: Active
Activity [10]: Active
Activity [11]: Active
hemolysis at 32 ug/ml [12]: > 10%
Activity [7]: inactive
Activity [13]: Active
Activity [14]: Active

COc1ccc(-c2oc3cc(OC4OC(C)C(O)C(O)C4O)cc(O)c3c(=O)c2OC2OC(C)C(O)C(O)C2O)cc1O (configuration not stated)
Activity [6]: inactive

CC1=CC(=O)c2c(O)cccc2C1=O [PLUMBAGIN]
Activity [15]: 100%
Activity [16]: 96%
Activity ([5]; at 32 µg/mL): 92%

COc1ccc(-c2oc3cc(OC4OC(C)C(O)C(OC(C)=O)C4O)cc(O)c3c(=O)c2OC2OC(C)C(O)C(O)C2O)cc1O (configuration not stated)
Activity [6]: inactive

O=C1CC(c2ccc(O)cc2)Oc2cc(O)c([C@@H]3O[C@H](CO)[C@@H](O)[C@H](O)[C@H]3O)c(O)c21 (some centres not stated)
Activity [8]: Active
Activity [9]: Active
Activity [10]: Active
Activity [11]: Active
Activity [7]: Active
Activity [13]: Active
Activity [14]: Active
